In patent publication EP4389106A1, “METHOD OF PREPARATION OF LIPOSOMAL C[…] […] AND LIPOSOMAL C[…] […]” (Aero-Bw K. Domagala Sp. Jawna, priority 2022, dated 2024):
Values joined by “and” are separate entries in the source; they are usually repeats but may differ in a detail not shown here. Identical values can stand only once.

Test system: Salmonella typhimurium TA98
Experiment: Ames test, strain TA98 (reading frame shift)
Assay type: cell-based
Settings: positive control at 2 µg/mL

O=[N+]([O-])c1ccc2c(c1)Cc1ccccc1-2 [Extract 2-NF, 2-nitrofluorene]
MOI (Multiplicity of induction compared to baseline): 6.9 and 5.6
